Test results as given in patent publication US12533343B2, “Method for preparing (−)-cibenzoline succinate” (CELLTRION, INC., priority 2018, dated 2026).

Legend:
Format in all cases: physicochemical
[1] = Hygroscopicity; settings: 25±1° C., 24 hours, 80±2% RH
From the text: The hygroscopicity was to describe the water vapor uptake behavior of solid by mass changes.
The results of the hygroscopicity study shall be interpreted based on the criteria in Table 11 (ref. EUROPEAN PHARMACOPOEIA 9.0 volume 1 5.11. characters section in monographs).

[2] = Long-term storage stability test; settings: for Assay by potentiometry (on dried basis) / Chiral purity by HPLC S-Isomer Content / Identification by IR / Loss on drying at 105° C. for 3 hours / Related substance by HPLC Single maximum unknown impurity / Related substance by HPLC Total impurity: 25±2° C., RH 60±5%
Description: And related substances was measured by HPLC under below conditions.
(§1) <Packing details>—Primary packing: (−)-Cibenzoline succinic acid salt obtained by Example 4 shall be packed in transparent LDPE bag, twist and tie with Strip seal. • Secondary packing: The above bag shall be kept in Black color LDPE bag, twist and tie with Strip seal. • Tertiary packing: The above bag shall be kept Triple laminated aluminum bag with heat seal. Keep this bag in HDPE drum and close with lid.

[3] = Particle size analysis
From the text: The powder sample was dispersed with a dispersion pressure of 2 bar.
The accompanying Table 9 (ref. 2019 USP 42 NF 37 Volume 4 physical tests <811> powder fineness) indicates particle size distribution associated with corresponding values.

[4] = Accelerated stability test; settings: for Assay by potentiometry (on dried basis) / Chiral purity by HPLC S-Isomer Content / Identification by IR / Loss on drying at 105° C. for 3 hours / Related substance by HPLC Single maximum unknown impurity / Related substance by HPLC Total impurity: 40±2° C., RH 75±5%
From the text: as §1

[5] = powder dispersed at 2 bar, listed as (−)-Cibenzoline succinic acid salt

## O=C(O)CCC(=O)O.c1ccc(C2(c3ccccc3)C[C@@H]2C2=NCCN2)cc1 [Example 4, (−)-Cibenzoline succinic acid salt]
[1]
  Mass change: 0.01%
[1]; Ph. Eur. criteria
  Hygroscopicity evaluation: Non hygroscopic
[2]; 1-month
  Assay by potentiometry (on dried basis): 99.9 % w/w
  Chiral purity by HPLC S-Isomer Content: 100.0 % Area normalization
  Identification by IR: Complies
  Loss on drying at 105° C. for 3 hours: 0.04 % w/w
  Related substance by HPLC Single maximum unknown impurity: 0.01 % w/w
  Related substance by HPLC Total impurity: 0.01 % w/w
[2]; 2-month
  Assay by potentiometry (on dried basis): 100.1 % w/w
  Chiral purity by HPLC S-Isomer Content: 100.0 % Area normalization
  Identification by IR: Complies
  Loss on drying at 105° C. for 3 hours: 0.07 % w/w
  Related substance by HPLC Single maximum unknown impurity: 0.01 % w/w
  Related substance by HPLC Total impurity: 0.01 % w/w
[2]; 3-month
  Assay by potentiometry (on dried basis): 100.2 % w/w
  Chiral purity by HPLC S-Isomer Content: 100.0 % Area normalization
  Identification by IR: Complies
  Loss on drying at 105° C. for 3 hours: 0.14 % w/w
[2]; 6-month
  Assay by potentiometry (on dried basis): 100.2 % w/w
  Chiral purity by HPLC S-Isomer Content: 100.0 % Area normalization
  Identification by IR: Complies
  Loss on drying at 105° C. for 3 hours: 0.18 % w/w
[2]; Initial
  Assay by potentiometry (on dried basis): 100.1 % w/w
  Chiral purity by HPLC S-Isomer Content: 100.0 % Area normalization
  Identification by IR: Complies
  Loss on drying at 105° C. for 3 hours: 0.11 % w/w
  Related substance by HPLC Single maximum unknown impurity: 0.01 % w/w
  Related substance by HPLC Total impurity: 0.01 % w/w
[2]; long-term storage conditions
  change of (S)-form to (R)-form: not changed to (R)-form
  stability conclusion: excellent stability
[2]; six months, long-term storage conditions
  white crystalline powder form over storage: uniformly maintained
[3]; USP <811> powder fineness
  Classification (particle size): Very fine
[3]; powder dispersed at 2 bar
  d10: 15.2 μm
  d50: 104 μm
  d90: 265 μm
[3]; [5]
  d50: 104.0 μm
  d90: 265.0 μm
[4]; 1-month
  Assay by potentiometry (on dried basis): 100.1 % w/w
  Chiral purity by HPLC S-Isomer Content: 100.0 % Area normalization
  Identification by IR: Complies
  Loss on drying at 105° C. for 3 hours: 0.15 % w/w
  Related substance by HPLC Single maximum unknown impurity: 0.01 % w/w
  Related substance by HPLC Total impurity: 0.01 % w/w
[4]; 2-month
  Assay by potentiometry (on dried basis): 100.3 % w/w
  Chiral purity by HPLC S-Isomer Content: 100.0 % Area normalization
  Identification by IR: Complies
  Loss on drying at 105° C. for 3 hours: 0.12 % w/w
[4]; 3-month
  Assay by potentiometry (on dried basis): 100.1 % w/w
  Chiral purity by HPLC S-Isomer Content: 100.0 % Area normalization
  Identification by IR: Complies
  Loss on drying at 105° C. for 3 hours: 0.09 % w/w
[4]; 6-month
  Assay by potentiometry (on dried basis): 99.6 % w/w
  Chiral purity by HPLC S-Isomer Content: 100.0 % Area normalization
  Identification by IR: Complies
  Loss on drying at 105° C. for 3 hours: 0.10 % w/w
[4]; Initial
  Assay by potentiometry (on dried basis): 100.1 % w/w
  Chiral purity by HPLC S-Isomer Content: 100.0 % Area normalization
  Identification by IR: Complies
  Loss on drying at 105° C. for 3 hours: 0.11 % w/w
  Related substance by HPLC Single maximum unknown impurity: 0.01 % w/w
  Related substance by HPLC Total impurity: 0.01 % w/w
[4]; accelerated conditions
  stability conclusion: excellent stability
[4]; accelerated stability test section
  change of (S)-form to (R)-form: not changed to (R)-form
[4]; six months, accelerated conditions
  white crystalline powder form over storage: uniformly maintained
